Results taken from the supplement of paper PMC6045584.

What was measured:
Test in all cases: area under dose-response curve of surviving fraction (unscaled, Aref=0) (surviving fraction x log10(nM)); higher = more resistant
Conditions in all cases: exposure time: 5 days; dose range 0.5-1000 nM
[1] = compound: O=C(NOCC1CC1)c1ccc(F)c(F)c1Nc1ccc(I)cc1Cl
Procedure, shortened: (§1)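 Inhibitor was applied to tumour cell lines at eight concentrations (0.5 to 1000 nM) for five days in 384-well plates. Luminescence from CellTiter-Glo, scaled to DMSO-only wells, gave surviving fractions in three screens per line, and these were fitted by 3-parameter logistic regression with the drc R package. The area under the curve is an unscaled activity area. Aref was 0, and dose was on a log10 scale.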

[2] = compound: Cc1nc(Nc2n[nH]c3c2CN(C(=O)N[C@H](CN(C)C)c2ccccc2)C3(C)C)c2sccc2n1
Procedure, shortened: as §1

AZD4547 = compound: COc1cc(CCc2cc(NC(=O)c3ccc(N4CC(C)NC(C)C4)cc3)n[nH]2)cc(OC)c1 [AZD4547]
Procedure, shortened: as §1

MK0752 = compound: O=C(O)CC[C@H]1CC[C@@](c2cc(F)ccc2F)(S(=O)(=O)c2ccc(Cl)cc2)CC1 [MK0752]
Procedure, shortened: as §1

MK2206 = compound: NC1(c2ccc(-c3nc4ccn5c(=O)[nH]nc5c4cc3-c3ccccc3)cc2)CCC1 [MK2206]
Procedure, shortened: as §1

GEMCITABINE = compound: Nc1ccn([C@@H]2O[C@H](CO)[C@@H](O)C2(F)F)c(=O)n1 [GEMCITABINE]
Procedure, shortened: as §1

METHOTREXATE = compound: CN(Cc1cnc2nc(N)nc(N)c2n1)c1ccc(C(=O)N[C@@H](CCC(=O)O)C(=O)O)cc1 [METHOTREXATE]
Procedure, shortened: as §1

ETOPOSIDE = compound: COc1cc([C@@H]2c3cc4c(cc3[C@@H](O[C@@H]3O[C@@H]5CO[C@@H](C)O[C@H]5[C@H](O)[C@H]3O)[C@H]3COC(=O)[C@H]23)OCO4)cc(OC)c1O [ETOPOSIDE]
Procedure, shortened: as §1

PLX-4720 = compound: CCCS(=O)(=O)Nc1ccc(F)c(C(=O)c2c[nH]c3ncc(Cl)cc23)c1F [PLX-4720]
Procedure, shortened: as §1

EVEROLIMUS = compound: CO[C@H]1C[C@@H]2CC[C@@H](C)[C@@](O)(O2)C(=O)C(=O)N2CCCC[C@H]2C(=O)O[C@H]([C@H](C)C[C@@H]2CC[C@@H](OCCO)[C@H](OC)C2)CC(=O)[C@H](C)/C=C(\C)[C@@H](O)[C@@H](OC)C(=O)[C@H](C)C[C@H](C)/C=C/C=C/C=C/1C [EVEROLIMUS]
Procedure, shortened: as §1

VINORELBINE = compound: CCC1=C[C@@H]2CN(C1)Cc1c([nH]c3ccccc13)[C@@](C(=O)OC)(c1cc3c(cc1OC)N(C)[C@H]1[C@@](O)(C(=O)OC)[C@H](OC(C)=O)[C@]4(CC)C=CCN5CC[C@]31[C@@H]54)C2 [VINORELBINE]
Procedure, shortened: as §1

SUNITINIB = compound: CCN(CC)CCNC(=O)c1c(C)[nH]c(/C=C2\C(=O)Nc3ccc(F)cc32)c1C [SUNITINIB]
Procedure, shortened: as §1

ERLOTINIB = compound: C#Cc1cccc(Nc2ncnc3cc(OCCOC)c(OCCOC)cc23)c1 [ERLOTINIB]
Procedure, shortened: as §1

Test System	area under dose-response curve [1]	area under dose-response curve [2]	area under dose-response curve (AZD4547)	area under dose-response curve (MK0752)	area under dose-response curve (MK2206)	area under dose-response curve (GEMCITABINE)	area under dose-response curve (METHOTREXATE)	area under dose-response curve (ETOPOSIDE)	area under dose-response curve (PLX-4720)	area under dose-response curve (EVEROLIMUS)	area under dose-response curve (VINORELBINE)	area under dose-response curve (SUNITINIB)	area under dose-response curve (ERLOTINIB)
MDAMB361 BREAST	3.27	2.83	3.18	2.88	2.39	2.69	2.76	3.08	2.92	2.12	2.09	2.37	2.9
MDAMB436 BREAST	2.96	2.55	3.36	3.02	3.01	1.85	2.65	2.79	2.86	2	1.99	2.56	3.36
MDAMB468 BREAST	3.21	0.925	3.6	3.61	3.04	1.09	2	3.72	3.1	1.93	1.33	3.17	3.23
MFM223 BREAST	3.55	1.83	1.63	3.93	2.57	1.99	4	3.2	2.87	2.56	1.45	2.38	4.35
MHM BONE	3.16	2.58	2.76	3.45	3.2	1.46	2.88	3.23	3.27	2.37	2.21	3.15	3.44
NY BONE	3.13	1.56	2.25	3.54	3.18	1.11	2.49	3.17	3.09	2.33	1.35	2.99	3.37
OS25HAL BONE	3.16	1.54	3.36	3.42	2.56	0.944	1.93	3.02	3.14	2.13	1.8	3.07	3.48
SNU475 LIVER	2.41	1.98	3.14	3.31	3.02	1.81	3	3.16	2.43	1.26	2.17	2.27	3.21
SYO1 SYNOVIAL	2.4	0.731	2.4	3.26	2.79	0.79	1.91	2.14	2.17	1.81	1.3	1.69	3.34
T47D BREAST	3.24	2.87	3.76	3.56	2.61	2.72	2.28	2.95	3.2	2.24	1.99	3.18	3.73
U2OS BONE	3.26	1.35	2.79	3.56	3.14	1.49	2.4	2.88	3.23	2.39	2.14	2.94	3.46
